Experimental data reported in patent US12187703B2, “Crystalline forms of N-(3-(2-(2-hydroxyethoxy)-6-morpholinopyridin-4-yl)-4-methvlphenyl)-2 (trifluoromethyl)isonicotinamide as Raf inhibitors for the treatment of cancer” (NOVARTIS AG, priority 2019, dated 2025).
Values joined by “and” are separate entries in the source; they are usually repeats but may differ in a detail not shown here. Equal values may be shown once. Read-outs that look alike come from different tables or passages of the source.

Key:
Assay type in all cases: physicochemical
[1] = Stability testing, solid state bulk (UPLC, color, XRPD, TGA); conditions: for Degradation Products (DP), UPLC / TGA (%) Weight loss at 175° C. / XRPD: solid state
Procedure: (§1) X-ray powder diffraction (XRPD) analysis of all polymorph forms was performed using a Bruker D8 Discover x-ray diffractometer with XYZ stage. Measurements were taken at about 40 kV and 1 mA under the following conditions:
(§2) Crystalline Monohydrate Form HA was analysed by thermogravimetric analysis (TGA) using a Discovery Thermogravimetric Analysis Calorimeter from TA instruments under the following conditions (see Table 6).
(§3) No notable change in chemical purity, nor change in XRPD, nor change in TGA, was observed.

[2] = Solubility at 25° C., 24 hours slurry; conditions: for Solubility / solubility at 24 h: approx. at 25° C., target concentration 10 mg/mL; for Final pH / XRPD of solid after equilibration: 25° C.; for solubility at 24 h: 25 °C, thermodynamic from solid, read-out: Solubility
Procedure: A sample was weighed in a glass vial and solvent added to make a slurry followed by stirring or shaking at 25° C. for 24 hours. The amount of sample and solvents depends on the target concentration, e.g. if the target concentration is 10 mg/mL, the weight of the sample should be 10 mg and the amount of solvent volume should be 1 mL. The solid and liquid are separated by centrifugation at 13000 rpm for 2 minutes with 0.2 μm membrane. The filtrate is then used for the solubility test after appropriate dilution. The diluent is from the UPLC method. The solids obtained after equilibration were analyzed by XRPD after being dried at 40° C. under vacuum for 2 hours. DSC/TGA analysis was conducted for selected samples.

[3] = Particle size distribution by Fraunhofer light diffraction
Procedure: (§4) Pilot manufacture batches producing Modification HA and Form A on kilogram scale were compared for their respective bulk powder properties. The particle size distribution (PSD) was determined according to the corresponding method for release. Other measurements were performed using technical methods known in the art or as described herein.
A few drops of the dispersing aid were added to an appropriate amount of test substance. The mixture was mixed intensively, e.g. on a vortex mixer, in order to wet the substance thoroughly and to form a smooth and homogeneous paste. The resultant paste was diluted with the dispersion liquid to a final volume of 3-6 ml and the dispersion mixed again. The cumulative volume distribution was determined using a laser light diffraction instrument as stated above. The parameters could be adjusted accordingly so that the test dispersion is representative, homogeneous and well dispersed.
Particle sizes were determined at the undersize values of 10%, 50% and 90% (×10, ×50, ×90), and additional values in question, from the cumulative volume distribution.

[4] = Bulk density and flowability with ring shear tester
Procedure: as §4

[5] = Behaviour under compression, grinding and granulation with water
[6] = Hygroscopicity, storage and solubility conclusions
Source text: The term “non-hygroscopic” as used herein refers to a compound showing a water uptake of at most 2 w-% in the sorption cycle when measured with GMS (or DVS) at a relative humidity in the range of from 0 to 95% RH and a temperature of (25.0±0.1) ° C., based on the weight of the compound. Non-hygroscopic is preferably up to 0.2%.

[7] = Stability testing, solid state bulk (UPLC, color, XRPD, TGA); design: key: A: No change of color; conditions: solid state
Procedure: as §1, §2, §3

[8] = 1 week/80° C., glass vials with screw caps
[9] = 1 week/80° C./75% RH, open bottles
[10] = 2 weeks/50° C., glass vials with screw caps
[11] = 2 weeks/50° C./75% RH, open bottles
[12] = 2 weeks/80° C., glass vials with screw caps
[13] = 2 weeks/80° C./75% RH, open bottles
[14] = 3 months/40° C./75% RH, open bottles
[15] = 4 weeks/50° C., glass vials with screw caps
[16] = 4 weeks/50° C./75% RH, open bottles
[17] = Xenon light (approx. 1200 kLuxh)
[18] = pilot manufacture batch, kilogram scale

Cc1ccc(NC(=O)c2ccnc(C(F)(F)F)c2)cc1-c1cc(OCCO)nc(N2CCOCC2)c1 [Monohydrate HA, N-(3-(2-(2-hydroxyethoxy)-6-morpholinopyridin-4-yl)-4-methylphenyl)-2-(trifluoromethyl)isonicotinamide]
Stability upon light exposure ([1]; 1200 kLuxh for 12 h): stable upon light exposure | Degradation Products (DP), UPLC [1, 8]: 0.27% | TGA (%) Weight loss at 175° C. [1, 8]: 3.60% and 3.56% | XRPD [1, 8]: No change | Degradation Products (DP), UPLC [1, 9]: 0.30% and 0.26% | TGA (%) Weight loss at 175° C. [1, 9]: 3.76% and 3.86% | XRPD [1, 9]: No change | Degradation Products (DP), UPLC [1, 10]: 0.29% and 0.33% | TGA (%) Weight loss at 175° C. [1, 10]: 3.76% and 3.89% | XRPD [1, 10]: No change | Degradation Products (DP), UPLC [1, 11]: 0.27% and 0.25% | TGA (%) Weight loss at 175° C. [1, 11]: 3.66% and 3.65% | XRPD [1, 11]: No change | Degradation Products (DP), UPLC [1, 12]: 0.29% | TGA (%) Weight loss at 175° C. [1, 12]: 3.67% and 3.76% | XRPD [1, 12]: No change | Degradation Products (DP), UPLC [1, 13]: 0.26% and 0.28% | TGA (%) Weight loss at 175° C. [1, 13]: 3.60% and 3.66% | XRPD [1, 13]: No change | Degradation Products (DP), UPLC [1, 14]: 0.53% and 0.30% | TGA (%) Weight loss at 175° C. [1, 14]: 3.55% and 3.60% | XRPD [1, 14]: No change | Degradation Products (DP), UPLC [1, 15]: 0.28% and 0.27% | TGA (%) Weight loss at 175° C. [1, 15]: 3.75% and 3.63% | XRPD [1, 15]: No change | Degradation Products (DP), UPLC [1, 16]: 0.30% and 0.27% | TGA (%) Weight loss at 175° C. [1, 16]: 3.78% and 3.69% | XRPD [1, 16]: No change | Degradation Products (DP), UPLC [1, 17]: 0.36% and 0.30% | TGA (%) Weight loss at 175° C. [1, 17]: 3.76% and 3.90% | XRPD [1, 17]: No change | Stability in bulk ([1]; up to 80° C. over an extended period of time, no notable change in chemical purity, XRPD, TGA): highly stable in bulk | Solubility ([2]; FaSSIF (pH 6.5), LOQ = 0.002517 mg/mL): LOQ | Final pH ([2]; FaSSIF, pH 6.5): 6.44 | XRPD of solid after equilibration ([2]; FaSSIF, pH 6.5): No change | solubility at 24 h ([2]; FeSSIF, pH 5.8, fessif, FeSSIF (pH 5.8), LOQ = 0.002517 mg/mL): 3.2 µg/mL | Final pH ([2]; FeSSIF, pH 5.8): 5.69 | XRPD of solid after equilibration ([2]; FeSSIF, pH 5.8): No change | Final pH ([2]; SGF (pH 2)): 2.07 | XRPD of solid after equilibration ([2]; SGF (pH 2)): No change | solubility at 24 h ([2]; SGF, pH 2, simulated gastric fluid, SGF (pH 2), LOQ = 0.002517 mg/mL): 2.2 µg/mL | Final pH ([2]; Water): 7.22 | XRPD of solid after equilibration ([2]; Water): No change | Solubility ([2]; Water, LOQ = 0.002517 mg/mL): LOQ | solubility at 24 h ([2]; acetonitrile, organic solvent or mixture, Acetonitrile): > 10000 µg/mL | solubility at 24 h ([2]; dichloromethane, organic solvent or mixture, Dichloromethane): > 10000 µg/mL | solubility at 24 h ([2]; ethanol abs., organic solvent or mixture, Ethanol abs.): > 10000 µg/mL | solubility at 24 h ([2]; ethyl acetate, organic solvent or mixture, Ethyl acetate): > 10000 µg/mL | solubility at 24 h ([2]; methanol, organic solvent or mixture, Methanol): > 10000 µg/mL | solubility at 24 h ([2]; octanol, organic solvent or mixture, Octanol): > 10000 µg/mL | Final pH ([2]; pH 1 (0.1N HCl)): 1.06 | XRPD of solid after equilibration ([2]; pH 1 (0.1N HCl)): No change | Solubility ([2]; pH 1 (0.1N HCl), LOQ = 0.002517 mg/mL): LOQ | Final pH ([2]; pH 2 (0.01N HCl)): 2.12 | XRPD of solid after equilibration ([2]; pH 2 (0.01N HCl)): No change | Solubility ([2]; pH 2 (0.01N HCl), LOQ = 0.002517 mg/mL): LOQ | Final pH ([2]; pH 4.7 acetate buffer): 4.73 | XRPD of solid after equilibration ([2]; pH 4.7 acetate buffer): No change | Solubility ([2]; pH 4.7 acetate buffer, LOQ = 0.002517 mg/mL): LOQ | Final pH ([2]; pH 6.8 phosphate buffer): 6.74 | XRPD of solid after equilibration ([2]; pH 6.8 phosphate buffer): No change | Solubility ([2]; pH 6.8 phosphate buffer, LOQ = 0.002517 mg/mL): LOQ | Final pH ([2]; pH 9.0 borate buffer): 8.88 | XRPD of solid after equilibration ([2]; pH 9.0 borate buffer): No change | Solubility ([2]; pH 9.0 borate buffer, LOQ = 0.002517 mg/mL): LOQ | Factor of diameter X10, Monohydrate HA vs. Modification A ([3]; 131 μm vs. 2 μm): > 10 | Diameter X of PSD measured during release, X50 [3, 18]: X50: 277 μm | Diameter X of PSD measured during release, X90 [3, 18]: X90: 414 μm | Factor of bulk density, Monohydrate HA versus Modification A ([4]; 696 kg/m^3 versus 71 kg/m^3): ~10 | Bulk flowability with ring shear tester, rating in words ([4]; under 1250 Pa normal stress): “free flowing” | Technical measurement of bulk flowability with ring shear tester ([4]; under 1250 Pa normal stress): 13.7 | Technical measurement of bulk density with ring shear tester ([4]; under no consolidation stress): 696 kg/m^3 | Stability upon compression, grinding and wet granulation with water [5]: stable upon compression, grinding and wet granulation with water | Solubility, overall rating [6]: adequate solubility | Stability when stored in bulk quantities [6]: stable when stored in bulk quantities | Hygroscopicity ([6]; non-hygroscopic defined as water uptake at most 2 w-%, 0 to 95% RH, 25° C. (GMS/DVS)): non-hygroscopic | Color (CL) [7, 8]: A | Color (CL) [7, 9]: A | Color (CL) [7, 10]: A | Color (CL) [7, 11]: A | Color (CL) [7, 12]: A | Color (CL) [7, 13]: A | Color (CL) [7, 14]: A | Color (CL) [7, 15]: A | Color (CL) [7, 16]: A | Color (CL) [7, 17]: A
